The results in this text go back to patent US20100298448A1, “PENETRATION ENHANCERS FOR FUNGICIDAL AGENTS” (priority 2006, published 2010).

For this data set the following is noted: apple tree (Golden Delicious variety). As for the experimental part: In this test, the penetration of active substances through enzymatically isolated cuticles of apple tree leaves was measured.
Leaves which were cut off in the stage of full development of apple trees of the Golden Delicious variety were used. The isolation of the cuticles was effected in a manner such that • first leaf discs marked on the underside with dye and punched out were filled by means of vacuum infiltration with a pectinase solution (0.2 to 2% strength) buffered to a pH between 3 and 4, sodium azide was then added and • the leaf discs thus treated were allowed to stand until disintegration of the original leaf structure and detachment of the noncellular cuticle.
Thereafter, only those cuticles of the upper sides of the leaves which were free of staltoa and hairs were further used. They were washed several times alternately with water and a buffer solution at pH 7. The clean cuticles obtained were finally drawn onto small Teflon plates and smoothed and dried with a gentle air jet.
In the next step, the cuticle membranes thus obtained were placed in stainless steel diffusion cells (=transport chambers) for membrane transport investigations. For this purpose, the cuticles were placed by means of forceps centrally on the silicone grease-coated edges of the diffusion cells and closed with a likewise greased ring. The arrangement was chosen so that the morphological outside of the cuticles faced outwards, i.e. towards the air, while the original inside faced the interior of the diffusion cell. The diffusion cells were filled with water or with a mixture of water and solvent. […]
After the application of the spray liquors, in each case the water was allowed to evaporate, and in each case the chambers were then turned around and were placed in thermostated trays, air having a defined temperature and atmospheric humidity being blown onto the outside of the cuticle. […] The active substance penetration was measured with radioactively marked active substance.

Regarding `CC(C)(C)C(O)(CCc1ccc(Cl)cc1)Cn1cncn1` (stereo not drawn) [Tebuconazole, tebuconazole], the “Penetration* after 5 hours [%]” value came out at 2%, the “Penetration* after 1 day [%]” value was found to be 8% and the “Penetration** after 2 days [%]” value worked out at 15%.
